Measured values from ChEMBL document CHEMBL5233266, “β-Carboline as a Privileged Scaffold for Multitarget Strategies in Alzheimer's Disease Therapy” (J Med Chem, 2021).

Key:
[1] = biological target: Tyrosine-protein kinase Lck (Homo sapiens, UniProt P06239); assay: Inhibition of LCK (unknown origin)
[2] = biological target: Mitogen-activated protein kinase 1 (Homo sapiens, UniProt P28482); assay: Inhibition of ERK2 (unknown origin)
[3] = biological target: Cyclin-dependent kinase 2 (Homo sapiens, UniProt P24941); assay: Inhibition of CDK2 (unknown origin)
[4] = biological target: Dual specificity protein kinase CLK3 (Homo sapiens, UniProt P49761); assay: Inhibition of CLK3 (unknown origin)
[5] = biological target: Rho-associated protein kinase 2 (Homo sapiens, UniProt O75116); assay: Inhibition of ROCK2 (unknown origin)
[6] = biological target: Dual specificity protein kinase CLK4 (Homo sapiens, UniProt Q9HAZ1); assay: Inhibition of CLK4 (unknown origin)
Dual specificity protein kinase CLK4, sequence (Q9HAZ1 whole entry): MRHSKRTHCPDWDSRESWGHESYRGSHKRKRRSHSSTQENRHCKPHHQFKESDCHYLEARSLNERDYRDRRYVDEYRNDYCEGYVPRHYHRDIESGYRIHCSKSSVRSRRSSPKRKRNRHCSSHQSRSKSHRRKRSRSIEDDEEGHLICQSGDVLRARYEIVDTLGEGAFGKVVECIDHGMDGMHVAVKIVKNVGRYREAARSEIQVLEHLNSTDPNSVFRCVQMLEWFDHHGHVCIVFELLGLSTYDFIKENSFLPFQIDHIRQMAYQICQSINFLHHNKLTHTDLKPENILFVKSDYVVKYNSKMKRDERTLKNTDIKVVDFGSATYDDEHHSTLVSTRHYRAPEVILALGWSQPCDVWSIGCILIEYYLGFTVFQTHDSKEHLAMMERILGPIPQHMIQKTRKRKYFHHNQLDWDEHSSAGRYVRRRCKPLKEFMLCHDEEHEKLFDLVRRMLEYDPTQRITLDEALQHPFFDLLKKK

[7] = biological target: Tyrosine-protein kinase Fyn (Homo sapiens, UniProt P06241); assay: Inhibition of FYN (unknown origin)
Tyrosine-protein kinase Fyn, sequence (P06241 whole entry): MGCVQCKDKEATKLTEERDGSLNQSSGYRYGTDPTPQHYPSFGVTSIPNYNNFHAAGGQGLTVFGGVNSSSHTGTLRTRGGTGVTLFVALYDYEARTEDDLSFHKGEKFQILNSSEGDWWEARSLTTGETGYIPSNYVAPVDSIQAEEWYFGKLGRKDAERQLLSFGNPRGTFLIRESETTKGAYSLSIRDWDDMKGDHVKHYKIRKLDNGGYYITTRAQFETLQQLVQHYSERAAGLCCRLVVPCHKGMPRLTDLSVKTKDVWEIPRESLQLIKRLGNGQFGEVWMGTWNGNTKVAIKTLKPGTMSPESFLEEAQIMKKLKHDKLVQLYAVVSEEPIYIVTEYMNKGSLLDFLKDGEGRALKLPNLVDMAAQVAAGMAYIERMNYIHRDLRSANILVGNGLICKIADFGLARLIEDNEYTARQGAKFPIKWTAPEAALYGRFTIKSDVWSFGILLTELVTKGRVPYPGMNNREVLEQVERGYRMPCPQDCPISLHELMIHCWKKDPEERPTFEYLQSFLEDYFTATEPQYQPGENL

[8] = biological target: cAMP-dependent protein kinase (PKA) (Homo sapiens, UniProt P22694+P17612+P22612); assay: Inhibition of PKA (unknown origin); assay type: protein assay
[9] = biological target: Rho-associated protein kinase 1 (Homo sapiens, UniProt Q13464); assay: Inhibition of ROCK1 (unknown origin)
[10] = biological target: Tyrosine-protein kinase Lyn (Homo sapiens, UniProt P07948); assay: Inhibition of LYN (unknown origin)
[11] = biological target: GABA-A receptor; anion channel; assay: Displacement of [3H]flunitrazepam from GABAA (unknown origin ) receptor by radioligand binding assay; assay type: protein-complex assay, Homo sapiens
[12] = biological target: Dual specificity protein kinase CLK2 (Homo sapiens, UniProt P49760); assay: Inhibition of CLK2 (unknown origin)
Dual specificity protein kinase CLK2, sequence (P49760 whole entry): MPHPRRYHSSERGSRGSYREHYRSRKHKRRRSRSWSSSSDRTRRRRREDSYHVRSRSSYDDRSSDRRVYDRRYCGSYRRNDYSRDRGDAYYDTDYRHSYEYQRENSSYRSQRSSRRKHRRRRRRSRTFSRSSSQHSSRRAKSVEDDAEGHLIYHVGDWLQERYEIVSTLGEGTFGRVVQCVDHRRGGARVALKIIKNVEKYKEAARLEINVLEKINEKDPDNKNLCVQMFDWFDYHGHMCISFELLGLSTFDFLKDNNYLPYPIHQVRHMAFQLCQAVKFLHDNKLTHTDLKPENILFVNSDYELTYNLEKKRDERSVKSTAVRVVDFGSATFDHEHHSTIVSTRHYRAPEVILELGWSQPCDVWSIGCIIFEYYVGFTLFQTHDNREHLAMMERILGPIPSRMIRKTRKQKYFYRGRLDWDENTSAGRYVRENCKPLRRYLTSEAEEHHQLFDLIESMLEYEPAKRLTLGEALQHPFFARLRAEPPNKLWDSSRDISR

Protein kinase C (PKC) = assay: Inhibition of PKC (unknown origin); assay type: protein assay, Homo sapiens
[13] = biological target: 5-hydroxytryptamine receptor 5A (Homo sapiens, UniProt P47898); assay: Binding affinity to 5-HT5AR (unknown origin) assessed as inhibition constant
5-hydroxytryptamine receptor 5A, sequence (P47898 whole entry): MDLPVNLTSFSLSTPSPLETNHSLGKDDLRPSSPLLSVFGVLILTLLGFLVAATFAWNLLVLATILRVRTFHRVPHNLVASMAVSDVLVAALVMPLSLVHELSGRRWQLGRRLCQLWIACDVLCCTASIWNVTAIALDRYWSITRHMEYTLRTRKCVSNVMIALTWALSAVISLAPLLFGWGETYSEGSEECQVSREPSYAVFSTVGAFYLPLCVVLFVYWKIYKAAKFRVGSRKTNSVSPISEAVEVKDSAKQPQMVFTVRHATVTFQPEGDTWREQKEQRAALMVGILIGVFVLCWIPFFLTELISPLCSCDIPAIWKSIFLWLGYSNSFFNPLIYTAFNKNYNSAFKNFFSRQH

[14] = biological target: 5-hydroxytryptamine receptor 1D (Homo sapiens, UniProt P28221); assay: Binding affinity to 5-HT1DR (unknown origin) assessed as inhibition constant
5-hydroxytryptamine receptor 1D, sequence (P28221 whole entry): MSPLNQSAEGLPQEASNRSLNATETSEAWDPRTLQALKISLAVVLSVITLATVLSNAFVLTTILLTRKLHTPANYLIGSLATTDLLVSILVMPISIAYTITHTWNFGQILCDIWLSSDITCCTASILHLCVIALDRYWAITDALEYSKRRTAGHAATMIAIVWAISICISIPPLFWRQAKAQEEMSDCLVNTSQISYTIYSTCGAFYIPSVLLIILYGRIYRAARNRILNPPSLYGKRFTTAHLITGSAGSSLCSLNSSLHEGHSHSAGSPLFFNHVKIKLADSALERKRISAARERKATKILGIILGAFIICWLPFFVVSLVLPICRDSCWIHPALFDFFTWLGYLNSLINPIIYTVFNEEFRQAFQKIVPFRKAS

[15] = biological target: Dual specificity tyrosine-phosphorylation-regulated kinase 1A (Homo sapiens, UniProt Q13627); assay: Inhibition of DYRK1A (unknown origin)
[16] = biological target: 5-hydroxytryptamine receptor 6 (Homo sapiens, UniProt P50406); assay: Binding affinity to 5-HT6R (unknown origin) assessed as inhibition constant
5-hydroxytryptamine receptor 6, sequence (P50406 whole entry): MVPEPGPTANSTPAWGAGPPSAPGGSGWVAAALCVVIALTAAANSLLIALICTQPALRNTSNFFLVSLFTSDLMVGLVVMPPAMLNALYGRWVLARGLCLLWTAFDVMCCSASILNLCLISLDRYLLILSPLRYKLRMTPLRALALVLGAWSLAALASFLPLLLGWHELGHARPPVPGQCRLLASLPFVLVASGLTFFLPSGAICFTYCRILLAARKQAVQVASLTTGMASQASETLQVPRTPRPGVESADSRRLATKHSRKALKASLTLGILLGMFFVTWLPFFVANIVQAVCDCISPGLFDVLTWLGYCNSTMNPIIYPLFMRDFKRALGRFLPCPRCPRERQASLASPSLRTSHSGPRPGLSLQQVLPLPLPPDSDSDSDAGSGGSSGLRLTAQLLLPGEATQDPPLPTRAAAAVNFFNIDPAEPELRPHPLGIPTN

[17] = biological target: 5-hydroxytryptamine receptor 1B (Homo sapiens, UniProt P28222); assay: Displacement of […] from human 5-HT1B expressed in human HEK cells assessed as inhibition constant by FLIPR assay; assay type: cell-based
5-hydroxytryptamine receptor 1B, sequence (P28222 whole entry): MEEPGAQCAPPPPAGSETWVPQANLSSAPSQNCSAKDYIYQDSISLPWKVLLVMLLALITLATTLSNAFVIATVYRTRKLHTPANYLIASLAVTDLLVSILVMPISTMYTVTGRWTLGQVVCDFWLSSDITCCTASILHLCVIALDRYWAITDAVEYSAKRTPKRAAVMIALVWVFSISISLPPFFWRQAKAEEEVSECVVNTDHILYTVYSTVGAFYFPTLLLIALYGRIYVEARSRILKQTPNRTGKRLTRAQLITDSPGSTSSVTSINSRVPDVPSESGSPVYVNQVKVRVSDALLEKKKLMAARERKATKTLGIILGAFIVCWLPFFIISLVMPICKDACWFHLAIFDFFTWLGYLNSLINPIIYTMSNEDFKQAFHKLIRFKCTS

[18] = biological target: 5-hydroxytryptamine receptor 2A (Homo sapiens, UniProt P28223); assay: Displacement of [3H]-LSD from human 5-HT2A expressed in human HEK cells assessed as inhibition constant by FLIPR assay; assay type: cell-based
[19] = biological target: T1, 5-hydroxytryptamine receptor 3A (Homo sapiens, UniProt P46098); assay: Binding affinity to 5-HT3R (unknown origin) assessed as inhibition constant
T1 sequence (P46098 whole entry): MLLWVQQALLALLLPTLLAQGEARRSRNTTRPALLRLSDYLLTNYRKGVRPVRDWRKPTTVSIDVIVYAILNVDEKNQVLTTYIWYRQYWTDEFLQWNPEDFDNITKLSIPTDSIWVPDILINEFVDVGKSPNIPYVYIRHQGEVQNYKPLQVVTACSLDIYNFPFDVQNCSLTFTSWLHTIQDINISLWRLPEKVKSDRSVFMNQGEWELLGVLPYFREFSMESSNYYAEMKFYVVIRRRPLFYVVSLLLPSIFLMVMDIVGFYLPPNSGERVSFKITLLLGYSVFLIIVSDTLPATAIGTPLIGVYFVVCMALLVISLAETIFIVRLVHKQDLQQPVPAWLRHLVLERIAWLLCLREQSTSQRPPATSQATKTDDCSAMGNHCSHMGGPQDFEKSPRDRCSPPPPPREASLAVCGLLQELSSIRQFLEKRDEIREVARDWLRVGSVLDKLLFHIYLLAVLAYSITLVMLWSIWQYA

[20] = biological target: 5-hydroxytryptamine receptor 1A (Homo sapiens, UniProt P08908); assay: Displacement of […] from human 5-HT1A expressed in human HEK cells assessed as inhibition constant by FLIPR assay; assay type: cell-based
[21] = biological target: 5-hydroxytryptamine receptor 7 (Homo sapiens, UniProt P34969); assay: Displacement of […] from human 5-HT7 expressed in human HEK cells assessed as inhibition constant by FLIPR assay; assay type: cell-based
5-hydroxytryptamine receptor 7, sequence (P34969 whole entry): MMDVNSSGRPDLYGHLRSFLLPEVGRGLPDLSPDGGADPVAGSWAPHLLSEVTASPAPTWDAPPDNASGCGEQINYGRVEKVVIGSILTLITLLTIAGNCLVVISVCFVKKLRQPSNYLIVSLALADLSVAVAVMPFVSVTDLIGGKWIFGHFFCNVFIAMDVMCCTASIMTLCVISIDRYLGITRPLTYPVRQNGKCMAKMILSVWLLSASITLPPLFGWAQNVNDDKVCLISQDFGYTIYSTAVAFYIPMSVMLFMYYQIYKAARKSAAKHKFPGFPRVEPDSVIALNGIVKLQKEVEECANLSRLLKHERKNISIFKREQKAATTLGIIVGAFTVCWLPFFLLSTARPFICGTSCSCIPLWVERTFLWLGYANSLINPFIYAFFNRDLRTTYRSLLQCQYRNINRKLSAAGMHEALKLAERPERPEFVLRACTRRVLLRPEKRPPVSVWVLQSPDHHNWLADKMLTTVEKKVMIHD

[22] = biological target: T2, Amine oxidase [flavin-containing] A (Homo sapiens, UniProt P21397); assay: Inhibition of MAO-A (unknown origin)
T2 sequence (P21397 whole entry): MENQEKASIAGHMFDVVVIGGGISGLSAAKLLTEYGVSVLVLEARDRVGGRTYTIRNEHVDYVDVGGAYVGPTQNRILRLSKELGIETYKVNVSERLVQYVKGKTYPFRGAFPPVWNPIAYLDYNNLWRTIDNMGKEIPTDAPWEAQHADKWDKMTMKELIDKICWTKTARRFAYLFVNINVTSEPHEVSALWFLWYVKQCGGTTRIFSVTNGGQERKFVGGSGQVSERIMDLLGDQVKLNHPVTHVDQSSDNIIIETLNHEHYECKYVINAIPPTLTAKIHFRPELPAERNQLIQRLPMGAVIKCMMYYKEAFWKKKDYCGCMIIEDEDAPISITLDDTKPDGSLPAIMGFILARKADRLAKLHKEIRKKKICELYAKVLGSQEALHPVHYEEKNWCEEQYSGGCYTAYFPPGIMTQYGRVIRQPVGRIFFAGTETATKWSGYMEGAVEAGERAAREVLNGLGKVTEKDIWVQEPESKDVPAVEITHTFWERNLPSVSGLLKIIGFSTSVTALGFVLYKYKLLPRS

[23] = biological target: T3, 5-hydroxytryptamine receptor 2C (Homo sapiens, UniProt P28335); assay: Displacement of [3H]-LSD from human 5-HT2C expressed in human HEK cells assessed as inhibition constant by FLIPR assay; assay type: cell-based
T3 sequence (P28335 whole entry): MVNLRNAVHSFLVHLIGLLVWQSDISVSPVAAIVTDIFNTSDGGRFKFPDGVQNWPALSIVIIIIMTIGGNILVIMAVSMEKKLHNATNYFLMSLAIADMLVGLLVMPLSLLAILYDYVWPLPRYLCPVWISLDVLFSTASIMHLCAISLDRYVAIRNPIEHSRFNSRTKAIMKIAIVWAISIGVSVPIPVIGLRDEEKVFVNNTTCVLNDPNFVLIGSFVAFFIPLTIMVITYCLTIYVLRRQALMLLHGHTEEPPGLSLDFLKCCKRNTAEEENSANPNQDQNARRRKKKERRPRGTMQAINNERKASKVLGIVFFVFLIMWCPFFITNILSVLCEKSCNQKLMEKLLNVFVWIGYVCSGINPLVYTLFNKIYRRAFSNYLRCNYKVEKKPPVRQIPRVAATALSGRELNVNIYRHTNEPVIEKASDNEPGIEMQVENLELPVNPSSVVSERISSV

[24] = biological target: Gamma-aminobutyric acid receptor subunit alpha-2 (Rattus norvegicus, UniProt P23576); assay: Displacement of [3H]-flumazenil from rat recombinant alpha2 GABAA receptor assessed as inhibition constant in presence of zolpidem
Gamma-aminobutyric acid receptor subunit alpha-2, sequence (P23576 whole entry): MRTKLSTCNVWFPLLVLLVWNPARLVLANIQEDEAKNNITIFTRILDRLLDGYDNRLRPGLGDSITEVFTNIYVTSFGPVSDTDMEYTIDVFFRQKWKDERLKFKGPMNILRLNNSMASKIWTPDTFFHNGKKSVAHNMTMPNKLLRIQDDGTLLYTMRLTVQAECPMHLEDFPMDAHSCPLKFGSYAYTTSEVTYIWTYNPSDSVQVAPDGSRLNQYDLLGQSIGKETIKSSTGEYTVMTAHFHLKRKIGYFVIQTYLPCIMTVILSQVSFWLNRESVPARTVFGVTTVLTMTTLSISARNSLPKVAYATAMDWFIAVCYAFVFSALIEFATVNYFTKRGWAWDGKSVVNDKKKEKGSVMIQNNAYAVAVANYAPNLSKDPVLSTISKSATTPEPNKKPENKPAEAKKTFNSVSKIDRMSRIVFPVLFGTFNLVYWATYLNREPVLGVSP

[25] = biological target: Gamma-aminobutyric acid receptor subunit alpha-1 (Rattus norvegicus, UniProt P62813); assay: Displacement of [3H]-flumazenil from rat recombinant alpha1 GABAA receptor assessed as inhibition constant in presence of zolpidem
Gamma-aminobutyric acid receptor subunit alpha-1, sequence (P62813 whole entry): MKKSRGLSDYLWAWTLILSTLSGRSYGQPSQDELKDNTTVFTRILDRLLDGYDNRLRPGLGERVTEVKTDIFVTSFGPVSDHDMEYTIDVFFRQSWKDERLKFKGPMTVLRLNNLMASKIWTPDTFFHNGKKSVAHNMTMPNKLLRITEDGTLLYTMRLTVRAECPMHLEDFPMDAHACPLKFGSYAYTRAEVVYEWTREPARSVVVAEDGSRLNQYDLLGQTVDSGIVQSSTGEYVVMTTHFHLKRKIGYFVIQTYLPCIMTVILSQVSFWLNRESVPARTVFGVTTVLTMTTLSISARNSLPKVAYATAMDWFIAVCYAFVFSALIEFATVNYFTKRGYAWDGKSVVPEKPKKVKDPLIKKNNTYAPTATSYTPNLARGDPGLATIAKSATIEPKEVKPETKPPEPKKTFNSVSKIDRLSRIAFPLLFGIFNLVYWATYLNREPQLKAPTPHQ

[26] = biological target: Dual specificity protein kinase CLK1 (Homo sapiens, UniProt P49759); assay: Inhibition of CLK1 (unknown origin)
Dual specificity protein kinase CLK1, sequence (P49759 whole entry): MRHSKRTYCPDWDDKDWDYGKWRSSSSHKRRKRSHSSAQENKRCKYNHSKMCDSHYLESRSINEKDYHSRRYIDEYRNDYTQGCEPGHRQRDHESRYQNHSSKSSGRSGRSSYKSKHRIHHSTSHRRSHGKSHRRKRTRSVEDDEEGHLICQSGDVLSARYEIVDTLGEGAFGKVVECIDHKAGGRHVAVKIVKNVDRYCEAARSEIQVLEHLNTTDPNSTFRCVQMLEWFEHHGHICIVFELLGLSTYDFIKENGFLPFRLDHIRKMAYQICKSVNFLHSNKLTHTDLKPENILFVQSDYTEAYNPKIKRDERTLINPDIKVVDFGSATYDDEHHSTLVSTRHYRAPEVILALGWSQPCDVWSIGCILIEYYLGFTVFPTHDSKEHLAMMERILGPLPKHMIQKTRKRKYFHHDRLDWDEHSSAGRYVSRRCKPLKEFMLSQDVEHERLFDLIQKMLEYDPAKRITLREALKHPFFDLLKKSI

[27] = biological target: Glycogen synthase kinase-3 beta (Homo sapiens, UniProt P49841); assay: Inhibition of GSK-3beta (unknown origin)

COc1ccc2c(c1)[nH]c1c(C)nccc12 [HARMINE]
IC50 [1]: > 250 µM
IC50 [2]: > 30 µM
IC50 [3]: 33 µM
IC50 [4]: 3 µM
IC50 [5]: > 40 µM
IC50 [6]: 0.024 µM
IC50 [7]: > 250 µM
IC50 [8]: > 250 µM
IC50 [9]: 1.5 µM
IC50 [10]: > 250 µM
IC50 [11]: > 100 µM
IC50 [12]: 0.12 µM
IC50 (Protein kinase C (PKC)): > 250 µM

COc1ccc2c3c([nH]c2c1)C(C)=NCC3 [HARMALINE]
Ki [13]: > 10 µM
Ki [14]: > 10 µM
IC50 [15]: 4.6 µM
Ki [16]: 1.5 µM
Ki [17]: > 10 µM
Ki [18]: 5 µM
Ki [19]: > 10 µM
Ki [20]: > 10 µM
Ki [21]: 5.5 µM
IC50 [22]: 0.0025 µM
Ki [23]: 9.4 µM

Cn1c2ccc(F)cc2c2c(C(=O)N3CCCC3)cn(-c3ccccc3)c(=O)c21
Ki [24]: 0.012 µM
Ki [25]: 0.007 µM

N#CCn1c2ccc(O)cc2c2c3c(n4cccc4c21)C(=O)NC3=O
IC50 [15]: 0.2 µM
IC50 [26]: 0.26 µM
IC50 [27]: 0.42 µM
